The source made the active and inactive calls.

Results on five compounds are retold here after ChEMBL document CHEMBL1201862, “PubChem BioAssay data set” (2004).

The target of series [1] is G-protein coupled receptor 35 (Homo sapiens, UniProt Q9HC97). Put plainly: SAR Analysis for the identification of Selective Antagonists of ERK1/2 Activity in GPR35-Overexpressing U2OS Cells. [Related pubchem assays: 2079, 2058 ]. Type of series: functional, cell-based.
Series [2] has as its system Streptococcus sp. 'group A'. Put plainly: Streptococcus pyogenes SK(-)GAS viability under kanamycin – luminescence, BacTiterGlo, confirmation, counter-screen for streptokinase expression inhibitor project, dose response (AID 1900). Format: functional, organism-based.
Series [3] is described as follows: CCR5-tropic HIV-1 fusion blockers – cell-based, CCR5-tropic Env, dose response (AID 2279). Format: functional.
Another series has as its system Streptococcus. Put plainly: GAS UMAA2166 growth inhibition – luminescence, BacTiterGlo, counter-screen for streptokinase expression inhibitor project, dose response (AID 1915).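 Also: potency for reduction of bacterial viability or growth.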 Type of series: functional, organism-based.
Series [4] concerns the target Tyrosine-protein phosphatase non-receptor type 12 (Homo sapiens, UniProt Q05209). Put plainly: SAR Selectivity Analysis of small molecule inhibitors of PEST using pCAP in a fluorescence assay. [Related pubchem assays (depositor defined):AID1779, AID1784, AID2135]. Type of series: functional.
Series [5] has as its target T1, Tyrosine-protein phosphatase non-receptor type 22 (Homo sapiens, UniProt Q9Y2R2). Put plainly: SAR LYP1 Fluorescent Assay using OMFP substrate for In Vitro dose response studies - Set 3. [Related pubchem assays (depositor defined):AID1779, AID1784, AID2140, AID2686]. Type of series: functional.
For series [6], the target named is Tyrosine-protein phosphatase non-receptor type 7 (Homo sapiens, UniProt P35236). The series can be described thus: inhibition of hematopoietic tyrosine phosphatase HePTP – biochemical, set 2, SAR follow-up (AID 449736). Format: functional.
Tyrosine-protein phosphatase non-receptor type 7, sequence (P35236 whole entry): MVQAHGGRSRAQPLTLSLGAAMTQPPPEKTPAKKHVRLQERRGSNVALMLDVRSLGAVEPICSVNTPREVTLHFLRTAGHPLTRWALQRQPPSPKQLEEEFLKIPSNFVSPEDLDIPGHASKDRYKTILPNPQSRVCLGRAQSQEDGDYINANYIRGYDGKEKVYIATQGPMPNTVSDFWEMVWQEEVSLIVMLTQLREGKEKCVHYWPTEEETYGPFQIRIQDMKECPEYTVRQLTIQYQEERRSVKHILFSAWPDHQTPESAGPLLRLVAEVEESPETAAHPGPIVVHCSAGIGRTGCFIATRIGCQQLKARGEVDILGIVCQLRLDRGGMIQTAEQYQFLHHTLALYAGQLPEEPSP
Series [7] concerns the target T1, Tyrosine-protein phosphatase non-receptor type 22. The series can be described thus: inhibition of lymphoid tyrosine phosphatase LYP – biochemical, pCAP fluorogenic substrate, fluorescence, set 3, SAR follow-up (AID 449727). Format: functional.
Series [8] addresses G-protein coupled receptor 55 (Homo sapiens, UniProt Q9Y2T6). The series can be described thus: blockers of GPR55 signalling, imaged – imaging, image-based, counter-screen for GPR35 antagonist project, SAR follow-up (AID 2397). Format: functional. In general terms: The purpose of a counterscreen is to sort out artefacts and off-target activity.
Another series concerns the target T2, Cysteine protease ATG4B (Homo sapiens, UniProt Q9Y4P1).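 Also: Fluorescence-based dose-response confirmation assay measuring inhibition of ATG4B activity.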
T2 sequence (Q9Y4P1 whole entry): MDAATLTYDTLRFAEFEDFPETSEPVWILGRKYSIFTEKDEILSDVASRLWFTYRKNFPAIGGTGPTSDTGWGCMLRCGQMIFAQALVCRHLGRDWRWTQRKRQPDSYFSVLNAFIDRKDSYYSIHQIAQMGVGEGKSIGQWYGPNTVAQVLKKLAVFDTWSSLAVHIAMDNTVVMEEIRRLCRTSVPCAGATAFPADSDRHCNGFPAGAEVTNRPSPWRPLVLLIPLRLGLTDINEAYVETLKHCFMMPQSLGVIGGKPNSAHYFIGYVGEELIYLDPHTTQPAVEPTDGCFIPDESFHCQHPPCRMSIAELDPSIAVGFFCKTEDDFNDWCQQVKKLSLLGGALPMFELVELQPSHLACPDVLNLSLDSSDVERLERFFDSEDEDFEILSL
Type of series: functional.

The target of another series is Phospholipase A2 (Homo sapiens, UniProt P04054). Format: functional.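 Also: confirmatory dose-response counterscreen on phospholipase A2, testing hits that came from an ultra-high-throughput screen for ATG4B inhibitors.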
Phospholipase A2, sequence (P04054 whole entry): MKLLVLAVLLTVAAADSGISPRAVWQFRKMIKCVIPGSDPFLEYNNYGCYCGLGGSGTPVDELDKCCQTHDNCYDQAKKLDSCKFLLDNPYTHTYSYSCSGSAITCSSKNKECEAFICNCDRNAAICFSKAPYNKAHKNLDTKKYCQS
In a further series the target is SUMO E1/E2 (Homo sapiens, UniProt P63279+Q9UBE0+Q9UBT2). The series can be described thus: SAR analysis of SUMOylation using HTRF in an in-Vitro dose response assay. [Related pubchem assays (depositor defined):AID2006, AID2011, AID2018, AID2069, AID2658]. Format: functional. Background: Time-resolved FRET reads energy transfer from a long-lived donor to a nearby acceptor.

Series [9] has as its target T3, RNA-binding protein pos-1 (Caenorhabditis elegans, UniProt G5EF15).
T3 sequence (G5EF15 whole entry): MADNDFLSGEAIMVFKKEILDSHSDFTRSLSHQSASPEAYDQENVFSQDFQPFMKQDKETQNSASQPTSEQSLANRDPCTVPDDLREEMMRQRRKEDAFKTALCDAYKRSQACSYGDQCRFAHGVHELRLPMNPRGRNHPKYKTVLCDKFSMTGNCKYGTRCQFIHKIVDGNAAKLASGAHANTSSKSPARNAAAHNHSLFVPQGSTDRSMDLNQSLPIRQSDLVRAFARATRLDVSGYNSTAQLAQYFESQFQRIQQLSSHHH
Put plainly: disruptors of C. elegans POS-1 RNA interaction – biochemical, fluorescence polarization, dose response (AID 1964).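 Also: purified POS-1 fused to maltose binding protein made in E. coli; potency of compounds blocking POS-1 binding to fluorescent RNA.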 On the technique in general: Fluorescence polarisation rises when a labelled molecule tumbles more slowly, as on binding a larger partner.

In series [10] the target is T4, Zinc finger protein mex-5 (Caenorhabditis elegans, UniProt Q9XUB2).
T4 sequence (Q9XUB2 whole entry): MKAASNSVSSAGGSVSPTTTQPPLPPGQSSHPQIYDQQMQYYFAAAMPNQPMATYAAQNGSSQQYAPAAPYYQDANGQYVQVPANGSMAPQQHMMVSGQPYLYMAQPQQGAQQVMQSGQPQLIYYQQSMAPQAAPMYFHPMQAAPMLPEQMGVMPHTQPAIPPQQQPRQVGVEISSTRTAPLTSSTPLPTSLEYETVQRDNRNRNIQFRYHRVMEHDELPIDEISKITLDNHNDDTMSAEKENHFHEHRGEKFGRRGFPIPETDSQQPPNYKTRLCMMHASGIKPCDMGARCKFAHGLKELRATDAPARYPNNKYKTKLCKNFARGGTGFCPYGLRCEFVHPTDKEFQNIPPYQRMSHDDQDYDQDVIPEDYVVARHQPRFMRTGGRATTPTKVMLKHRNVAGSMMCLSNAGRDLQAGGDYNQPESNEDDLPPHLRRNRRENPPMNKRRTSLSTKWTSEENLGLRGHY
The series can be described thus: potency of MEX-5 RNA-binding blockers – biochemical, C. elegans, fluorescence polarization, dose response (AID 1960).

Series [11] concerns the target UDP-galactopyranose mutase (Mycobacterium tuberculosis, UniProt P9WIQ1). The series can be described thus: Inhibitors of Mycobacterium tuberculosis UDP-galactopyranose mutase (UGM) enzyme Measured in Biochemical System Using Plate Reader - 2105-02_Inhibitor_Dose_CherryPick_Activity. [Related pubchem assays (depositor defined):AID504439].
For another series, the target named is T5, Cytochrome P450 1A2 (Homo sapiens, UniProt P05177).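 Also: PubChem cytochrome P450 panel assay, CYP1A2 panel member.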
T5 sequence (P05177 whole entry): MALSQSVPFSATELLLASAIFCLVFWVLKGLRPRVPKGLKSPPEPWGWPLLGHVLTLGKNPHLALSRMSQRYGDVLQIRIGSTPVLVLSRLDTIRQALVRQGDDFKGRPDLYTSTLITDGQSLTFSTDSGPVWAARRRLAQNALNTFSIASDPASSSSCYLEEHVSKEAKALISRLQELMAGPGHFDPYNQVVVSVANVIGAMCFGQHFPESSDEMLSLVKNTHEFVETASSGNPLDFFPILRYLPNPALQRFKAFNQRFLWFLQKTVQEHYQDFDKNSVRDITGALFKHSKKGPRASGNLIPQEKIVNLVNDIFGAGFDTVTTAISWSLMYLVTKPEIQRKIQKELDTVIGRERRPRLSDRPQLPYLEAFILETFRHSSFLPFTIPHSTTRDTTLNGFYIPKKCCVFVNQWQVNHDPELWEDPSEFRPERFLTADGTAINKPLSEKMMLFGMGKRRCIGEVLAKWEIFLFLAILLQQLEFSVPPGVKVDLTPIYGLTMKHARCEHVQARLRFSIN

Series [12] deals with BJ. The series can be described thus: BJ-TERT fibroblast viability loss – cell-based, RAS-independent, luminescence, dose response (AID 1933). Conditions: Homo sapiens. Type of series: functional.
The subject of series [13] is BJ. Put plainly: cells. Type of series: functional, cell-based. Particulars: Homo sapiens.
Series [14] deals with BJ. Put plainly: BJ-TERT-LT-ST fibroblast viability loss – cell-based, RAS-independent, luminescence, dose response (AID 1935).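 Also: BJ fibroblasts immortalized with TERT plus LT and ST oncogenes.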 Particulars: Homo sapiens. Type of series: functional.
Series [15] is described as follows: DRD fibroblast viability loss – cell-based, non-viral oncogenic, luminescence, dose response (AID 1934). Format: functional. Particulars: Homo sapiens.
For series [16], the target named is T6, Mannose-6-phosphate isomerase (Homo sapiens, UniProt P34949).
T6 sequence (P34949 whole entry): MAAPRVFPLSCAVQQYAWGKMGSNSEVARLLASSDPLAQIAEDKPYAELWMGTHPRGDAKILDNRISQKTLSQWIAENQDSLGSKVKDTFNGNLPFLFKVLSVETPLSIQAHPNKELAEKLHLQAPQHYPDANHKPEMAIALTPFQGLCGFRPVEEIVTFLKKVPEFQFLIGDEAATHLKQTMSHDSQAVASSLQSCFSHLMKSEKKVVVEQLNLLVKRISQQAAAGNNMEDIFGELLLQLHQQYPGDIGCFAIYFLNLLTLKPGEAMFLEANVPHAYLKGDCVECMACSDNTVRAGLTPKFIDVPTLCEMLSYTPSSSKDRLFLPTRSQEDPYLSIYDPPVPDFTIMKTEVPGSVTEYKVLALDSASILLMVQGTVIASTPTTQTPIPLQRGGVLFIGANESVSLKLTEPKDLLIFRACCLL
The series can be described thus: MPI inhibition at elevated mannose 6-phosphate – biochemical, fluorescence intensity, high mannose 6-phosphate, primary screen (AID 1220).

The target of series [17] is T6, Mannose-6-phosphate isomerase. Put plainly: phosphomannose isomerase inhibition – biochemical, fluorescence intensity, confirmation (AID 1535).
The target in series [18] is DNA dC->dU-editing enzyme APOBEC-3A (Homo sapiens, UniProt P31941). Put plainly: A3A deaminase inhibition for selectivity – biochemical, dose response (AID 504722). Format: functional.
A further series addresses Phosphomannomutase 2 (Homo sapiens, UniProt O15305). Put plainly: Counter screen SAR assay for PMM2 inhibitors via a fluorescence intensity assay. [Related pubchem assays (depositor defined):AID1545, AID1574].
The target in series [19] is DNA dC->dU-editing enzyme APOBEC-3G (Homo sapiens, UniProt Q9HC16). Put plainly: Dose Response confirmation of small molecule APOBEC3G DNA Deaminase Inhibitors via a fluorescence-based single-stranded DNA deaminase assay. [Related pubchem assays (depositor defined):AID493012, AID493028]. Format: functional.
DNA dC->dU-editing enzyme APOBEC-3G, sequence (Q9HC16 whole entry): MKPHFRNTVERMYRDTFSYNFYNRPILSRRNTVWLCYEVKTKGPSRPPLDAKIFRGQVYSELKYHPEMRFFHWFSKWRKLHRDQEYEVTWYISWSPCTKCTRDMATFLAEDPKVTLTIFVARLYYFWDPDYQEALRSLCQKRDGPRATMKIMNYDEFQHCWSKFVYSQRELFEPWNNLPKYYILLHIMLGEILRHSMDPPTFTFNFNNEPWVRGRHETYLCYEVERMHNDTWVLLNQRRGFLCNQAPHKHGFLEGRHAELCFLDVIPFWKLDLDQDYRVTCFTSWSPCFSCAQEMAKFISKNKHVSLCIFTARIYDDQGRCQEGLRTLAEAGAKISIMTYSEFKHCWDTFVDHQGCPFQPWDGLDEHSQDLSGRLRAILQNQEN
Series [20] addresses Lysine-specific demethylase 4C (Homo sapiens, UniProt Q9H3R0). The series can be described thus: inhibition of JMJD2C H3K9me3 demethylation – biochemical, DELFIA europium, cherry-picked samples, dose response (AID 488835). Format: functional.

T1 sequence (Q9Y2R2 whole entry): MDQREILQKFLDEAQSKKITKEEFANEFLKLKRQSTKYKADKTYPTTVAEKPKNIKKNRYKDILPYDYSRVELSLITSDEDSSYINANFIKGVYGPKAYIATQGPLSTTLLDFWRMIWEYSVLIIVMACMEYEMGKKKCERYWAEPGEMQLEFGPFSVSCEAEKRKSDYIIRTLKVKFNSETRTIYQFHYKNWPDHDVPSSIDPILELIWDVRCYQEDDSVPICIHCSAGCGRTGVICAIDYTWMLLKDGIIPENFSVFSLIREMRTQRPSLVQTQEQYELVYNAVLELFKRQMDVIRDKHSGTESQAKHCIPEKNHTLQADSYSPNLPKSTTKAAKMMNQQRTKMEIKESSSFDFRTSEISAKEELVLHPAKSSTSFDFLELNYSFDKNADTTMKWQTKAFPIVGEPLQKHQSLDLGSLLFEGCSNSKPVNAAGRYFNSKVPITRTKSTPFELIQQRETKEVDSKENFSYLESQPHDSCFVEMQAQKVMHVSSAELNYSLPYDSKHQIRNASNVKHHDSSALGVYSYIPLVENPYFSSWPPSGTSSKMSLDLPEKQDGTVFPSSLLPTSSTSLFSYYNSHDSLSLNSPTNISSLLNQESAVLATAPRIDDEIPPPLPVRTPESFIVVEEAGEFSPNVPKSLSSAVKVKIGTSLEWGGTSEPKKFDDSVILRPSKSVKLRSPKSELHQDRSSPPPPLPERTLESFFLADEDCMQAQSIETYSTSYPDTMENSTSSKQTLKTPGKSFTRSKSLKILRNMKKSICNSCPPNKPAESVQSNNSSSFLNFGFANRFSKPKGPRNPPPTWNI
Tyrosine-protein phosphatase non-receptor type 12, sequence (Q05209 whole entry): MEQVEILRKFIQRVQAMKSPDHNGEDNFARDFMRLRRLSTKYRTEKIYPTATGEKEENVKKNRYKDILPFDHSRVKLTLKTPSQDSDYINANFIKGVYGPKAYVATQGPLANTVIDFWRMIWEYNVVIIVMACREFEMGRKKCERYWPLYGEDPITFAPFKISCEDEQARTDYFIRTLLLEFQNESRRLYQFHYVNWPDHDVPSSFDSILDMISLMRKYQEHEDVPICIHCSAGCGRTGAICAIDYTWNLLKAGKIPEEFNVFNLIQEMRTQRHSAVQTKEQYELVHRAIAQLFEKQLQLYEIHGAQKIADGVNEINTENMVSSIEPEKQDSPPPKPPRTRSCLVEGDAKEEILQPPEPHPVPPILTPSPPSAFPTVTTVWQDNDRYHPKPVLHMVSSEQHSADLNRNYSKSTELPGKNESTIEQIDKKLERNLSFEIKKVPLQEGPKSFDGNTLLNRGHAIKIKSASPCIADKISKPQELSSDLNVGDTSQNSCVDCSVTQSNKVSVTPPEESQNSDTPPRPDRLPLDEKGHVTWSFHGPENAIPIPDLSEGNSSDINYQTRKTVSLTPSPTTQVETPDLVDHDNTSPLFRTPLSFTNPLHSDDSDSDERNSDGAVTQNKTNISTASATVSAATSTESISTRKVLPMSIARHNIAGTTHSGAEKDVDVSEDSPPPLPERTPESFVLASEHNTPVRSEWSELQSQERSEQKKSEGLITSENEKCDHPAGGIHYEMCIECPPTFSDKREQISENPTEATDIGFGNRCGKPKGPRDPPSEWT
Phosphomannomutase 2, sequence (O15305 whole entry): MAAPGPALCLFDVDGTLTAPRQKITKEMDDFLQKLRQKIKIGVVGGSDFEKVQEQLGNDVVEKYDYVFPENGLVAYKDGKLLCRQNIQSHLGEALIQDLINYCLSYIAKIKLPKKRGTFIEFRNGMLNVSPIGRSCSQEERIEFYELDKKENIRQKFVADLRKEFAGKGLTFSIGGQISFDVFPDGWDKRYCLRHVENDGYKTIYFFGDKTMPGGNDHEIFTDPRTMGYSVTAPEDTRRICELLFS
G-protein coupled receptor 55, sequence (Q9Y2T6 whole entry): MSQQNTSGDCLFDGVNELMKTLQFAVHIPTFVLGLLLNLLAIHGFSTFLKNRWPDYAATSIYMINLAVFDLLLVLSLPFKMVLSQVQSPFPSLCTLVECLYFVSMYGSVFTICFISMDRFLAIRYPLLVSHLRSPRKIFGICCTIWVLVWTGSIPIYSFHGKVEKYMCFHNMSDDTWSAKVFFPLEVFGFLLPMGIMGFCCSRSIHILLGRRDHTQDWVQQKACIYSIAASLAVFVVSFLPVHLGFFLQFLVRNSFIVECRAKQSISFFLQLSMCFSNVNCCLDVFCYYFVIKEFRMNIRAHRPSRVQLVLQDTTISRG
Lysine-specific demethylase 4C, sequence (Q9H3R0 whole entry): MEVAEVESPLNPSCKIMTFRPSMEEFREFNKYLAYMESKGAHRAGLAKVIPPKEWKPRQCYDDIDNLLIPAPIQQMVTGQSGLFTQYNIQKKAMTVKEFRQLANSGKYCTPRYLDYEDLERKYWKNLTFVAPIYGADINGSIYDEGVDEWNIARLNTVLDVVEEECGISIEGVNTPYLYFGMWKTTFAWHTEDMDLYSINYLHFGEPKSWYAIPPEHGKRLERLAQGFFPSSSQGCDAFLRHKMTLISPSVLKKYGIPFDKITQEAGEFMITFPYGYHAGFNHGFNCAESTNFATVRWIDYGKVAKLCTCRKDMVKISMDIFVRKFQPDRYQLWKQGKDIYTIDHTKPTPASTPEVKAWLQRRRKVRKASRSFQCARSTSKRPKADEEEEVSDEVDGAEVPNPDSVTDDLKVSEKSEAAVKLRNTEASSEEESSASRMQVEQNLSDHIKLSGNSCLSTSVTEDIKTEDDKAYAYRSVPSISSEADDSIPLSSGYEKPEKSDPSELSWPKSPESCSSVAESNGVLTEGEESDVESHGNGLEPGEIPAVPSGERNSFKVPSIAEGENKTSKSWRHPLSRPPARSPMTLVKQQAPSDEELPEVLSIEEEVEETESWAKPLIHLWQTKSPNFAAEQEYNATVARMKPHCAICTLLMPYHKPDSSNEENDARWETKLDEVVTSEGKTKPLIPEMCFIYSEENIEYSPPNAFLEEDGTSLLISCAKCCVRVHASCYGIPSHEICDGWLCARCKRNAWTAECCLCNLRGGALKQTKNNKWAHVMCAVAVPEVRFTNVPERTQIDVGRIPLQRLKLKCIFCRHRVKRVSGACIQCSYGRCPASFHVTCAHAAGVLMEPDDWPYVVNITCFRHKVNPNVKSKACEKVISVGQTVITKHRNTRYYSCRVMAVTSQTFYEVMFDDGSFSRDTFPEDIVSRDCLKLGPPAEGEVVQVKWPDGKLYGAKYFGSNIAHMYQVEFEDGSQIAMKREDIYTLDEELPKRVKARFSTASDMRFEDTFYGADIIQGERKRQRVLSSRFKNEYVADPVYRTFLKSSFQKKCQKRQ
G-protein coupled receptor 35, sequence (Q9HC97 whole entry): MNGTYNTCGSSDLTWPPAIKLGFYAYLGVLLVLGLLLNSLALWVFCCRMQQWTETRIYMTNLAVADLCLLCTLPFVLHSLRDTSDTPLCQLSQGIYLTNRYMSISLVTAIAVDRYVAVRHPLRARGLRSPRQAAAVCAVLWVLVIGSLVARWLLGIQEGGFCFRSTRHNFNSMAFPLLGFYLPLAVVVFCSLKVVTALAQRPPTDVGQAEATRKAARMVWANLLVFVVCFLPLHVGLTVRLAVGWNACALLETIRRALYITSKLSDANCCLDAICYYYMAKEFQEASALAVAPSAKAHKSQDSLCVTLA
UDP-galactopyranose mutase, sequence (P9WIQ1 whole entry): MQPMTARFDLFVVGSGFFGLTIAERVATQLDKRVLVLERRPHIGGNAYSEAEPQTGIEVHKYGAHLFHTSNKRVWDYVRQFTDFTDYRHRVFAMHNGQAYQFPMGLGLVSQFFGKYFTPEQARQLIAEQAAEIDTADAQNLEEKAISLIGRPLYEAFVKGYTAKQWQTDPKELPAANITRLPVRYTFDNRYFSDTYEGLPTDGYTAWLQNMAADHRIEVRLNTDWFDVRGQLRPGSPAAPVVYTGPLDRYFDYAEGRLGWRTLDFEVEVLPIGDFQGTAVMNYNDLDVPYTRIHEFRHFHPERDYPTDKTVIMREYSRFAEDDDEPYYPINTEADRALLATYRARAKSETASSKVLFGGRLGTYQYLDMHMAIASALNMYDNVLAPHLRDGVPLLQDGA

Regarding `CC(/C=C1\SC(=S)N(CCCC(=O)Nc2ccc(C(=O)O)cc2)C1=O)=C\c1ccccc1`, the IC50 (usually the point on the concentration scale where inhibition reaches its midpoint) in series [1] was 1.59 µM (active); in [3], 38.9 µM (active); in series [4], 8.24 µM (active); in series [5], 34.8 µM (active); in [6], 1.28 µM (active); in [7], 47.1 µM (active). In addition, the IC50 was 17.9 µM (inactive) in series [8], 6.85 µM (active) on Cysteine protease ATG4B and 5.33 µM (active) on Phospholipase A2. The EC50 (in general, the concentration giving half of the maximal effect) in series [2] is 0.274 µM (active); with Streptococcus it was 1.04 µM (active).

In the case of `S=c1[nH]nc(-c2cc(-c3ccccc3)[nH]n2)n1N=Cc1cccc(Cl)c1`, the IC50 on SUMO E1/E2 is 12.5 µM (active).

As for `O=C1c2cccc3c(N4CCCCC4)ccc(c23)C(=O)N1c1ccccn1`, the EC50 in [9] is > 300 µM (inconclusive); in series [10] it was 5.26 µM (inconclusive). Moreover, in series [11], the AC50 (in general, the concentration giving half of the maximal activity seen) is 58.7 µM (active).

Take `O=C(c1cnccn1)N1CCC2(CCN(Cc3cc(C(F)(F)F)cc(C(F)(F)F)c3)CC2)CC1`: the AC50 entry at Cytochrome P450 1A2 is “inactive”.

As to `N#Cc1ccc(/N=c2\ssnc2Cl)cc1`, the EC50 in the series on BJ [12] is 6.16 µM (inconclusive); with BJ [13], > 150 µM (inconclusive); in the series on BJ [14], > 150 µM (inconclusive); in series [15] it was 14.3 µM (active). In addition, the IC50 in series [16] is 6.34 µM (not active); in [17] it was 4.14 µM (active); in series [18] it was > 100 µM (inactive); at Phosphomannomutase 2 it was > 100 µM (inactive); in series [19], 7.33 µM (active). The AC50 in [20] was 5.67 µM (active).
